ChEMBL document CHEMBL1909046, “DrugMatrix in vitro pharmacology data”

How the values were obtained:
[1] = target: Sodium-dependent noradrenaline transporter (Homo sapiens, UniProt P23975); test: DRUGMATRIX: Norepinephrine Transporter radioligand binding (ligand: [125I] RTI-55); format: cell membranes, MDCK, Membrane; details: mdck, Not Active = under 50% inhibition at 10 µM
Cytochrome P450 2D6 = Cytochrome P450 2D6 (Homo sapiens, UniProt P10635); details: bti-tn-5b1-4; also: in other assays of this panel Not Active means under 50% inhibition at 10 µM
Sequence of Cytochrome P450 2D6 (P10635 whole entry): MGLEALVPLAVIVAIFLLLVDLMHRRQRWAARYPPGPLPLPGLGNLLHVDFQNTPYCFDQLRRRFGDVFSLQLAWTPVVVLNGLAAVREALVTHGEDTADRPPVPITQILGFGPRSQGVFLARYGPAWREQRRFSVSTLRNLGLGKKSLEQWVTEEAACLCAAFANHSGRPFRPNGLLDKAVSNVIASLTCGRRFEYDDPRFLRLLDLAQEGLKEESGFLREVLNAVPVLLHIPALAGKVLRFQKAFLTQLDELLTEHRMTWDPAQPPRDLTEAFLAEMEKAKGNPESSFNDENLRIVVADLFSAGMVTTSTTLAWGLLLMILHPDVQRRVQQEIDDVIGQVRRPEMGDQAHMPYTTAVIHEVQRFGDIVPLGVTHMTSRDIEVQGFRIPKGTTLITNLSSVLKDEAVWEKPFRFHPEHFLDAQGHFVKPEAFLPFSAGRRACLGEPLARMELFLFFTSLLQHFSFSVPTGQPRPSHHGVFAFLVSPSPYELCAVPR

Estrogen receptor beta = Estrogen receptor beta (Homo sapiens, UniProt Q92731); details: sf9; also: in other assays of this panel Not Active means under 50% inhibition at 10 µM
Sequence of Estrogen receptor beta (Q92731 whole entry): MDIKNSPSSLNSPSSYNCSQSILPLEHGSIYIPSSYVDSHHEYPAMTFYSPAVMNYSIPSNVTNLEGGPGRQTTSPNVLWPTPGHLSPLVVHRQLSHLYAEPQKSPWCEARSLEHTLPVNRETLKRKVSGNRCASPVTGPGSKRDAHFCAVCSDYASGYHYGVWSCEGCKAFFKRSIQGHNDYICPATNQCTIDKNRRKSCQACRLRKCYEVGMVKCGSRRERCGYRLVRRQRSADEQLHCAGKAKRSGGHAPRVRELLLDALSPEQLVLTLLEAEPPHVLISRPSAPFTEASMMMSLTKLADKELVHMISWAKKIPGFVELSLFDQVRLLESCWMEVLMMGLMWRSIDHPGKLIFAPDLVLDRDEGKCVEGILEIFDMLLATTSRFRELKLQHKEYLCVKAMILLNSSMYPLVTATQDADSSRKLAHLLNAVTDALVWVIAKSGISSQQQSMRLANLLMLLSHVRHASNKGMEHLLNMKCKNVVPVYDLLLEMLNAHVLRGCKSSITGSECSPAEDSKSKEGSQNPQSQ

Estrogen receptor = target: T1, Estrogen receptor (Homo sapiens, UniProt P03372); details: sf9; also: in other assays of this panel Not Active means under 50% inhibition at 10 µM
T1 sequence (P03372 whole entry): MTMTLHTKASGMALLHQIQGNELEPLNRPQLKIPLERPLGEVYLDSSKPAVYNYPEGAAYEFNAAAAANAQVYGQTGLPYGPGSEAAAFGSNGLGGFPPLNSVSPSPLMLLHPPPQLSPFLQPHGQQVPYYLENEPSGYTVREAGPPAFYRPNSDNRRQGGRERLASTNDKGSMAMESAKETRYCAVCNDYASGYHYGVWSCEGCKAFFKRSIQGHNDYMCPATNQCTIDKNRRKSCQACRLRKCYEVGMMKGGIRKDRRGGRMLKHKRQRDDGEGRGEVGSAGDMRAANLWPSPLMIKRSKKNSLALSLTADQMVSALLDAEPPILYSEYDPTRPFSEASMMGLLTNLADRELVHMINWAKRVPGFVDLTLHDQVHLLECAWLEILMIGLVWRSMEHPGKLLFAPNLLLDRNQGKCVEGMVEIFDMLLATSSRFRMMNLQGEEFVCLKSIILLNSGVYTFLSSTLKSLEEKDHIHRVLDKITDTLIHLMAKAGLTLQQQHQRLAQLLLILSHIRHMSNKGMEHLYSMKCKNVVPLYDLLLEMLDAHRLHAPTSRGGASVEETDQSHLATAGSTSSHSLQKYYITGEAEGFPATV

Cytochrome P450 2C19 = Cytochrome P450 2C19 (Homo sapiens, UniProt P33261); details: bti-tn-5b1-4; also: in other assays of this panel Not Active means under 50% inhibition at 10 µM
Sequence of Cytochrome P450 2C19 (P33261 whole entry): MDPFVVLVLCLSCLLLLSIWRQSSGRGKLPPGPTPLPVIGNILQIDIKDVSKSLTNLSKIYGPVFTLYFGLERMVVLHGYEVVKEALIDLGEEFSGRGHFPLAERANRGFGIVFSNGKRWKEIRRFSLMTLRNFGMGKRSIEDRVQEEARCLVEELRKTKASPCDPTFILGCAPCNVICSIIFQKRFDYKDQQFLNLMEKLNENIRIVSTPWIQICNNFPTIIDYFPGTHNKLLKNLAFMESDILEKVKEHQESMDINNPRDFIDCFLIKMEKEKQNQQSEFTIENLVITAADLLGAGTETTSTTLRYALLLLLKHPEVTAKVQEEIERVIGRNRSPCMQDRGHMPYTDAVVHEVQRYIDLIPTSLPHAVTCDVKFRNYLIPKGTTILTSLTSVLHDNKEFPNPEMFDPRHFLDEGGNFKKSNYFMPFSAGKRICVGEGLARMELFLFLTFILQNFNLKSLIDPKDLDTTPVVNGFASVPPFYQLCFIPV

[2] = target: Voltage-gated inwardly rectifying potassium channel KCNH2 (Homo sapiens, UniProt Q12809); details: hek293; also: in other assays of this panel Not Active means under 50% inhibition at 10 µM
Sequence of Voltage-gated inwardly rectifying potassium channel KCNH2 (Q12809 whole entry): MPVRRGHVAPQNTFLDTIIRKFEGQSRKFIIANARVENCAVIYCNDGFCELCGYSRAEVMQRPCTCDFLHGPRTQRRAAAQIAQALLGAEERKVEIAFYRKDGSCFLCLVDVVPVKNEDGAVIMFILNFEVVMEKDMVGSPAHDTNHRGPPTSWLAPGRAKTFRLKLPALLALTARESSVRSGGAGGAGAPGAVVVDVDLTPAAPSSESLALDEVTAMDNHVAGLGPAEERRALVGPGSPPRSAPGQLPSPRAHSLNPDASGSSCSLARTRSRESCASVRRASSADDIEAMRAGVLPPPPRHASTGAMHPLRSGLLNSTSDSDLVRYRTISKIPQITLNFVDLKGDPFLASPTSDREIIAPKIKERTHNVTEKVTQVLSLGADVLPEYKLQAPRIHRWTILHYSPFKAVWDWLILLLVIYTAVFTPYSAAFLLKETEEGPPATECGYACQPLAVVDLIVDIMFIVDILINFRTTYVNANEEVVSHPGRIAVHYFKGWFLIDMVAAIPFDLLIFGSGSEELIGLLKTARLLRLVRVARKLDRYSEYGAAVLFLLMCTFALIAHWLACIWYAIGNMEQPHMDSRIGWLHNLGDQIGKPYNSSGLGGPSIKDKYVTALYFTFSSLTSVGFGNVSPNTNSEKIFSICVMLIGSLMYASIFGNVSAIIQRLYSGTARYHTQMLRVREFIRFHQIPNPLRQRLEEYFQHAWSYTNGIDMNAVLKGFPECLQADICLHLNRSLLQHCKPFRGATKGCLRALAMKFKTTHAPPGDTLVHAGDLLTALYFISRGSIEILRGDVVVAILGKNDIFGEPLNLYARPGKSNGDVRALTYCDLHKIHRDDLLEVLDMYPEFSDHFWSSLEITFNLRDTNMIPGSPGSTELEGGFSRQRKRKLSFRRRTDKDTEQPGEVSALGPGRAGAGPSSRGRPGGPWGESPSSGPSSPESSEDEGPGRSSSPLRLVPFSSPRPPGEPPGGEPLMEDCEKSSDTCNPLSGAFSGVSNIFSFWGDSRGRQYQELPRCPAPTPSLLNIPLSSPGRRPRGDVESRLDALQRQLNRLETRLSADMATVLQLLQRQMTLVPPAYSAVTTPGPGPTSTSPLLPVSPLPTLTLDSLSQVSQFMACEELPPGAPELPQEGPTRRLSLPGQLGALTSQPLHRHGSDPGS

Cytochrome P450 3A4 = Cytochrome P450 3A4 (Homo sapiens, UniProt P08684); details: bti-tn-5b1-4; also: in other assays of this panel Not Active means under 50% inhibition at 10 µM
Sequence of Cytochrome P450 3A4 (P08684 whole entry): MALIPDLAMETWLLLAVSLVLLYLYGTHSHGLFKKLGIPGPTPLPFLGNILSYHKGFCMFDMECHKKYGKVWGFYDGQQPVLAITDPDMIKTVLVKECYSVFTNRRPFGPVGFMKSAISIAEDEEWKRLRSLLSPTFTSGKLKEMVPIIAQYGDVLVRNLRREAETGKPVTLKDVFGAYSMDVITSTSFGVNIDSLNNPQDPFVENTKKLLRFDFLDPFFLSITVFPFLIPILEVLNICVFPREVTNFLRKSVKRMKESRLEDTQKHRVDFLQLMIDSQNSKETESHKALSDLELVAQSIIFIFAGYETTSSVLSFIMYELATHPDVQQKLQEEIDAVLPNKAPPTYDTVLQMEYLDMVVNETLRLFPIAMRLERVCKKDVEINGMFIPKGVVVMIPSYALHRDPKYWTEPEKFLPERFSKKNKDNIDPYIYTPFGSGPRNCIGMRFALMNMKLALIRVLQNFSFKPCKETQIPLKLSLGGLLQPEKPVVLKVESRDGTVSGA

Glucocorticoid receptor = target: T2, Glucocorticoid receptor (Homo sapiens, UniProt P04150); details: hela s3; also: in other assays of this panel Not Active means under 50% inhibition at 10 µM
T2 sequence (P04150 whole entry): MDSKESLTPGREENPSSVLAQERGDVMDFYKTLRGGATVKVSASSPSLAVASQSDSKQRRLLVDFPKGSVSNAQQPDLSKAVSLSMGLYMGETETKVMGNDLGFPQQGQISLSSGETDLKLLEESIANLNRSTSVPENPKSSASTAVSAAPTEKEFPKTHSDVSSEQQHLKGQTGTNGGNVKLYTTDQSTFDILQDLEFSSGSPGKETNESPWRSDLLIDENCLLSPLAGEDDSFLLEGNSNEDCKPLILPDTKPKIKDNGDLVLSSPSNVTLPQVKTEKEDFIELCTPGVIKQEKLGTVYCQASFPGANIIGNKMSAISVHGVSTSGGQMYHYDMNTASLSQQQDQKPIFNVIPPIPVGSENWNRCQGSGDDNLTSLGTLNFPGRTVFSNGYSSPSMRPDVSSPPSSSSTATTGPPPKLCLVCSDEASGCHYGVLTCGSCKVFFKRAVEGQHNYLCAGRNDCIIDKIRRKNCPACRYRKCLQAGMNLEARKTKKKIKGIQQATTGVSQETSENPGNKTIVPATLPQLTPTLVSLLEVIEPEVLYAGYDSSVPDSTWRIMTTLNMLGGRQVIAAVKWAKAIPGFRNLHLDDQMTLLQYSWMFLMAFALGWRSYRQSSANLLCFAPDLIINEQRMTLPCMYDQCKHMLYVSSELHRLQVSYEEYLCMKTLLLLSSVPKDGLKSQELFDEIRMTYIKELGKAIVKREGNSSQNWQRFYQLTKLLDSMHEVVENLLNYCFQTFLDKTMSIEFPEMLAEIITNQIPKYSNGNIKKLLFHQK

Cytochrome P450 2C9 = Cytochrome P450 2C9 (Homo sapiens, UniProt P11712); details: bti-tn-5b1-4; also: in other assays of this panel Not Active means under 50% inhibition at 10 µM
Sequence of Cytochrome P450 2C9 (P11712 whole entry): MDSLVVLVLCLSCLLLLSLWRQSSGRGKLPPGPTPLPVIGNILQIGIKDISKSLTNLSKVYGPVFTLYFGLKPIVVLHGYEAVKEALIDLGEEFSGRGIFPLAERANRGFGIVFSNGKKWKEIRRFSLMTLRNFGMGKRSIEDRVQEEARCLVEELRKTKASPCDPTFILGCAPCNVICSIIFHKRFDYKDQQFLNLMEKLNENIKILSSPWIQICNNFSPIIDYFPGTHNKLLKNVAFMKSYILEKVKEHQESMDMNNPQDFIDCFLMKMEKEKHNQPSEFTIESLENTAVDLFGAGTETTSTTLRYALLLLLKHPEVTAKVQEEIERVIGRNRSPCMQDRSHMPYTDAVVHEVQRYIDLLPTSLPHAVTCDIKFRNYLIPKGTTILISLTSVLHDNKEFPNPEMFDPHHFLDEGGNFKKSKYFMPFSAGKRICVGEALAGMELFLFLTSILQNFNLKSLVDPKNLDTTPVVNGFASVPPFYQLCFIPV

Cytochrome P450 1A2 = target: T3, Cytochrome P450 1A2 (Homo sapiens, UniProt P05177); details: bti-tn-5b1-4; also: in other assays of this panel Not Active means under 50% inhibition at 10 µM
T3 sequence (P05177 whole entry): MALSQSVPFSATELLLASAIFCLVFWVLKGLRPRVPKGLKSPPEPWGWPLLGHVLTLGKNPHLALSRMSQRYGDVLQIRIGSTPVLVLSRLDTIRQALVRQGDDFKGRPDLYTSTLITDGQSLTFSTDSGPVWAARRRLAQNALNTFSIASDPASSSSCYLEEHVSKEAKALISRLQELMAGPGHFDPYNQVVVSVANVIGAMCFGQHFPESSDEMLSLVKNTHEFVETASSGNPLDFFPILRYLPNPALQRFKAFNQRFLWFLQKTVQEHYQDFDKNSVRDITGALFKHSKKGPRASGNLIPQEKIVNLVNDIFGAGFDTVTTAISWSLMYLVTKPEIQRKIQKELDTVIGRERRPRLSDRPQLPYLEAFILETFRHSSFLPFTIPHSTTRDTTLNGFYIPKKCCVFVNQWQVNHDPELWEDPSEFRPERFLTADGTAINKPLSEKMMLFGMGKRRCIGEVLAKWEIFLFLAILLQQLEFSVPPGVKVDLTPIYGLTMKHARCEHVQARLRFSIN

Sequence of Sodium-dependent noradrenaline transporter (P23975 whole entry): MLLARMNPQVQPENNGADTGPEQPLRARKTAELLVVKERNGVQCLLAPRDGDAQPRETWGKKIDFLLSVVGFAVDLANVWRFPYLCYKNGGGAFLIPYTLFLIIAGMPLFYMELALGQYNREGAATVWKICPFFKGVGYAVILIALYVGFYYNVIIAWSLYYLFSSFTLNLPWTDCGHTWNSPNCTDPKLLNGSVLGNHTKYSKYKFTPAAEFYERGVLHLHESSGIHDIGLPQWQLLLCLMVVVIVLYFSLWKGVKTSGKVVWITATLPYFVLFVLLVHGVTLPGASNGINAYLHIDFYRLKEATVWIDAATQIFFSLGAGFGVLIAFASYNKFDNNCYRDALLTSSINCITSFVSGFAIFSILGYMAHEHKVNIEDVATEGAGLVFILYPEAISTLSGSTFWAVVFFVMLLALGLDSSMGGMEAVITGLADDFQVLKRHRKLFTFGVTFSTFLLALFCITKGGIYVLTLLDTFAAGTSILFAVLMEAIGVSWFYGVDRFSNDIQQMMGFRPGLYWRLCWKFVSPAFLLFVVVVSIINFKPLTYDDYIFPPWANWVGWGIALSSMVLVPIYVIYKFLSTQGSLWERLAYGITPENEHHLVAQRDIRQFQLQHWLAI

## CC1CN(c2cc3c(cc2F)c(=O)c(C(=O)O)cn3-c2ccc(F)cc2F)CCN1 (configuration not stated) [TEMAFLOXACIN]
[1]
  IC50: Not Active
Cytochrome P450 2D6
  IC50: Not Active
  Ki: Not Active
Estrogen receptor beta
  IC50: Not Active
Estrogen receptor
  IC50: Not Active
Cytochrome P450 2C19
  IC50: Not Active
  Ki: Not Active
[2]
  IC50: Not Active
  Ki: Not Active
Cytochrome P450 3A4
  IC50: Not Active
  Ki: Not Active
Glucocorticoid receptor
  IC50: Not Active
Cytochrome P450 2C9
  IC50: Not Active
  Ki: Not Active
Cytochrome P450 1A2
  IC50: Not Active
  Ki: Not Active

## CC(C)[C@H](N)C(=O)OCCOCn1cnc2c(=O)nc(N)[nH]c21 [VALACYCLOVIR]
[1]
  IC50: Not Active
Cytochrome P450 2D6
  IC50: Not Active
  Ki: Not Active
Estrogen receptor beta
  IC50: Not Active
Estrogen receptor
  IC50: Not Active
Cytochrome P450 2C19
  IC50: Not Active
  Ki: Not Active
[2]
  IC50: Not Active
  Ki: Not Active
Cytochrome P450 3A4
  IC50: Not Active
  Ki: Not Active
Glucocorticoid receptor
  IC50: Not Active
Cytochrome P450 2C9
  IC50: Not Active
  Ki: Not Active
Cytochrome P450 1A2
  IC50: Not Active
  Ki: Not Active

## IVERMECTIN
[1]; read-out: IC50
  IC50: 3.95 µM
[1]; read-out: Ki
  Ki: 3.91 µM
Cytochrome P450 2D6
  IC50: Not Active
  Ki: Not Active
Estrogen receptor beta
  IC50: Not Active
  Ki: Not Active
Estrogen receptor
  IC50: Not Active
  Ki: Not Active
Cytochrome P450 2C19
  IC50: Not Active
  Ki: Not Active
[2]
  IC50: Not Active
  Ki: Not Active
Cytochrome P450 3A4
  IC50: Not Active
  Ki: Not Active
Glucocorticoid receptor
  IC50: Not Active
  Ki: Not Active
Cytochrome P450 2C9
  IC50: Not Active
  Ki: Not Active
Cytochrome P450 1A2
  IC50: Not Active
  Ki: Not Active
